pKi: −log10 of the molar value.
Target: T1, Adenosine receptor A1 (Rattus norvegicus, UniProt P25099)
T1 sequence (P25099 whole entry): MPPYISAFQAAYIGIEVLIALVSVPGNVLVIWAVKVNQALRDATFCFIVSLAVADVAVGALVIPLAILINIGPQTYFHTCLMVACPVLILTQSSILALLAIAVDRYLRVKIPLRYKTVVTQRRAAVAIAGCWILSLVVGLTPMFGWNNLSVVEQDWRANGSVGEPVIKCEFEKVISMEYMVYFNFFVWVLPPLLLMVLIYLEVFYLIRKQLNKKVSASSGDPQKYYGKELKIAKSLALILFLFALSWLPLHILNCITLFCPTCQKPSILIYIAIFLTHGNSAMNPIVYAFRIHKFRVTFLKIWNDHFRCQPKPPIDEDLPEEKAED

pKi: 8.70
SMILES: CCCn1c(=O)c2[nH]c(-c3ccc(OCC(=O)NCCN)cc3)nc2n(CCC)c1=O [N-(2-Amino-ethyl)-2-[4-(2,6-dioxo-1,3-dipropyl-2,3,6,9-tetrahydro-1H-purin-8-yl)-phenoxy]-acetamide]

— BindingDB's records for PubMed 1857334 (National Institute of Mental Health, 1991)
